# Legend:
# BRD4-BD1-BD2 = BRD4-BD1-BD2 (Homo sapiens (Human), UniProt O60885); assay: AlphaScreening assay, recombinant BRD4-BD1-BD2 and BET Ligand; assay type: binding; conditions: 2.5 nM BRD4-BD1-BD2, BET Ligand
# Experimental: Assays were performed by AlphaScreening technology using a recombinant BRD4-BD1-BD2 and BET Ligand. The AlphaScreening signal from the assay was correlated with the amount of BET Ligand binding to the bromodomain. The compounds were diluted in 50% DMSO and 1 μl of the dilution was added to a 10 μl reaction so that the final concentration of DMSO is 5% in all of reactions. All reactions were conducted at room temperature. The 9 μl reaction mixture in BRD Assay Buffer contains 2.5 nM BRD4-BD1-BD2 and the indicated amount of the inhibitor, and the reaction mixture were incubated for 30 min followed by additional 30 min incubation after the addition of 1 μl of BET Ligand (Table 2.3.1). For the negative control (blank), 1 μl of the assay buffer was added instead of the BET Ligand. After the 30 min incubation with the BET Ligand, 20 μl of BRD Detection buffer containing 10 μg/ml Glutathione acceptor beads and 10 μg/ml Streptavidin Donor beads was added and the final 30 μl mixture was incubated for 50 min in a dark room.
# AlphaScreening signal was measured using EnSpire Alpha 2390 Multilabel reader (Perkin Elmer). Binding experiments were performed in duplicate at each concentration. The AlphaScreening data were analyzed using the computer software, Graphpad Prism. In the absence of the compound, the AlphaScreening signal (At) in each data set was defined as 100% activity. In the absence of the BET Ligand, the AlphaScreening signal (Ab) in each data set was defined as 0% activity. The percent activity in the presence of each compound was calculated according to the following equation: % activity=[(A−Ab)/(At−Ab)]×100, where A=the AlphaScreening signal in the presence of the compound, Ab=the AlphaScreening signal in the absence of the BET Ligand, and At=the AlphaScreening signal in the absence of the compound. The percent inhibition was calculated for certain compounds according to the following equation: % inhibition=100−% activity.
# [1] = tested on: MV4-11 acute myeloid leukemia cells; assay: In vitro cell viability (AlamarBlue), MV4-11; assay type: cell-based; conditions: Homo sapiens, MV4-11 cells, 72-hour incubation, read-out: In Vitro Cell Viability (IC50) MV4-11 Cells (AML)
# Experimental: MV4-11 acute myeloid leukemia cells (American Type Culture Collection, Manassas, Va.) were added to 96-well clear bottom assay plates containing RPMI-1640 medium supplemented with 10% fetal bovine serum (FBS) at approximately 30,000 cells/well and incubated for 24 hours at 37° C. with 5% CO2 and 95% humidity. Control wells containing no cells were included to measure background fluorescence signal. Test compounds were dissolved at […] and diluted two-fold in DMSO to produce a working stock of compound solutions. Aliquots of the working stock solutions were subsequently diluted 100-fold in basal RPMI-1640 medium which was then further diluted 10-fold to the assay plate containing the cells to provide 10 test concentrations ranging from 0.04 μM-20 μM. Following a 72-hour incubation period, viability of the cells was determined by the AlamarBlue® assay (Life Technologies, Carlsbad, Calif.) following the manufacturer's protocol. Prior to generation of dose response curves, the data were background subtracted using the no cell control values (mean+/−standard deviation) and fluorescence values versus Log10 concentration of test compounds were plotted using GraphPad Prism. The resulting sigmoidal curve was then fit to the graph and IC50 values were calculated using a 4 parameter (4PL) algorithm using the following equation: 4(PL)F(x)=(A−D)/(1+(x/c)^B+D, where A=lower asymptote (baseline response), D=upper asymptote (maximum response), C=drug concentration that provokes a response halfway between A and D, B=slope of the curve. The results for selected compounds are set forth in Table 7.
# human BRD4 protein = human BRD4 protein (Homo sapiens (Human), UniProt O60885); assay: AlphaScreen assay, BRD4 (bromodomain 1 and 2) with histone H4 peptide; assay type: binding; conditions: for IC50: 25 nM BRD4, histone H4 peptide, 8 concentrations (10 nM-10 μM), read-out: BRD4-BD1-BD2 IC50; for BRD4-BD1-BD2 % Inhibition: test compounds assayed at 10 μM or 31.6 μM for screening
# Experimental: The interactions between test compounds and BRD4 protein containing both bromodomain 1 and bromodomain 2 were measured with human BRD4 protein with N-terminal His tag (BPS Bioscience, San Diego, Calif.) using AlphaScreen® assay at room temperature. A 9 μl reaction mixture in BRD Assay Buffer (BPS Bioscience) containing 25 nM BRD4 and test compounds at various concentrations were incubated for 30 minutes followed by additional 30-minute incubation with 1 μl of 20 μM histone H4 peptide (residue 1-21) in the presence of 5% DMSO. Test compounds (see Table 4) were assayed at 10 μM or 31.6 μM for screening purpose, while 8 different concentrations (10 nM-10 μM) were used for IC50 measurements. After the incubation, 20 μl of BRD Detection Buffer (BPS Bioscience) containing 10 μg/ml Glutathione Acceptor beads and 10 μg/ml Streptavidin Donor beads (PerkinElmer, Waltham, Mass.) was added and the mixture was incubated for 50 minutes in darkroom. Binding measurements were taken in duplicate at each concentration using EnSpire® Alpha Multimode Plate Reader Model 2390 (PerkinElmer). The AlphaScreen data were analyzed using Graphpad Prism (La Jolla, Calif.). In the absence of the compound, the AlphaScreen signal (At) in each data set was defined as 100% activity. In the absence of the histone H4 peptide ligand, the AlphaScreen signal (Ab) in each data set was defined as 0% activity. The percent activity in the presence of each compound was calculated according to the following equation: % activity=[(A−Ab)/(At−Ab)]×100, where A=the AlphaScreen signal in the presence of compound; Ab=the AlphaScreen signal in the absence of the histone peptide ligand; and At=the AlphaScreen signal in the absence of the compound. The percent inhibition was calculated according to the following equation: % inhibition=100−% activity.
Compound,inhibition at 10 µM (BRD4-BD1-BD2),IC50 [1],other results
C/C(=C\C(=O)c1c(-c2ccccc2)c2cc(Cl)ccc2[nH]c1=O)c1c(F)cccc1Cl,50%,–,–
CCN(CC)C(=O)Sc1c(-c2ccccc2)c2cc(OC)c(-c3c(C)noc3C)cc2[nH]c1=O,65%,–,–
Cc1noc(C)c1-c1ccc2[nH]c(=O)cc(-c3ccccc3)c2c1,82%,–,–
Cc1noc(C)c1-c1ccc2[nH]c(=O)cc(NCc3ccccc3)c2c1,99%,–,–
"O=C(/C=C/c1ccc2c(c1)OCCO2)c1c(-c2ccccc2)c2cc(Br)ccc2[nH]c1=O [Compound 9, 6-bromo-3-(3-(2,3-dihydrobenzo[b][1,4]dioxin-6-yl)acryloyl)-4-phenylquinolin-2(1H)-one]",–,5520 nM,–
"O=C(/C=C/c1c(F)cccc1Cl)c1c(-c2ccncc2)c2cc(Cl)ccc2[nH]c1=O [Compound 15, 6-chloro-3-(3-(2-chloro-6-fluorophenyl)acryloyl)-4-(pyridin-4-yl)quinolin-2(1H)-one]",–,1180 nM,–
Cc1nc(-c2c(N3CCCC3)c3cc(Cl)ccc3[nH]c2=O)co1 [Compound 22],–,1800 nM,–
COc1ccc(Cn2c(=O)c(-c3coc(C)n3)c(OS(=O)(=O)c3ccc(C)cc3)c3cc(Cl)ccc32)cc1 [Compound 83],–,–,IC50 (human BRD4 protein): 442 nM; BRD4-BD1-BD2 % Inhibition (human BRD4 protein): 99%
COc1ccc(Cn2c(=O)c(-c3coc(C)n3)c(OS(=O)(=O)c3ccccc3)c3cc(Cl)ccc32)cc1 [Compound 84],–,–,IC50 (human BRD4 protein): 372 nM; BRD4-BD1-BD2 % Inhibition (human BRD4 protein): 98%
COc1ccc(Cn2c(=O)c(-c3coc(C)n3)c(OS(=O)(=O)c3ccc(F)cc3)c3cc(Cl)ccc32)cc1 [Compound 85],–,–,IC50 (human BRD4 protein): 876 nM; BRD4-BD1-BD2 % Inhibition (human BRD4 protein): 99%

# The next lines start with results.
inhibition at 10 µM (BRD4-BD1-BD2),IC50 [1],Compound,other results
51%,–,Cc1noc(C)c1-c1ccc2[nH]c(=O)cc(O)c2c1,–
74%,–,Cc1noc(C)c1-c1ccc2c(c1)c(-c1ccccc1)cc(=O)n2Cc1ccccc1,–
85%,–,Cc1noc(C)c1-c1ccc2c(-c3ccccc3)cc(=O)[nH]c2c1,–
–,110 nM,O=C(/C=C/c1ccccc1)c1c(-c2ccccc2)c2cc(Cl)ccc2[nH]c1=O [Compound 1],IC50 (human BRD4 protein): 2430 nM; BRD4-BD1-BD2 % Inhibition (human BRD4 protein): 87%
–,2300 nM,"O=C(/C=C/c1cccs1)c1c(-c2ccccc2)c2cc(Cl)ccc2[nH]c1=O [Compound 7, 6-chloro-4-phenyl-3-(3-(thiophen-2-yl)acryloyl)quinolin-2(1H)-one]",–
–,10300 nM,"CN(C)c1ccc(/C=C/C(=O)c2c(-c3ccccc3)c3cc(Cl)ccc3[nH]c2=O)cc1 [Compound 8, 6-chloro-3-(3-(4-(dimethylamino)phenyl)acryloyl)-4-phenylquinolin-2(1H)-one]",–
–,400 nM,"Cc1cncc(F)c1/C=C/C(=O)c1c(-c2cccnc2)c2cc(Cl)ccc2[nH]c1=O [Compound 16, 6-chloro-3-(3-(3-fluoro-5-methylpyridin-4-yl)acryloyl)-4-(pyridin-3-yl)quinolin-2(1H)-one]",–
–,8600 nM,Cc1nc(-c2c(N3CCCCC3)c3cc(Cl)ccc3[nH]c2=O)co1 [Compound 21],–
–,3000 nM,O=C(/C=C/c1ccccc1)c1c(-c2ccccc2)c2cc(Br)ccc2[nH]c1=O [Compound 81],–
